According to ChEMBL document CHEMBL5506003, “Design and biological evaluation of dual tubulin/HDAC inhibitors based on millepachine for treatment of prostate cancer” (Eur J Med Chem, 2024):
Activity calls are given as the source filed them. The calls are words filed in the database; no cut-off is given here.

Tests used:
PC-3 [1] = assay: Induction of apoptosis in human PC-3 cells assessed as necrotic cells at 0.08 uM incubated for 24 hrs by Annexin V-FITC and PI staining based flow cytometry (reference value: 0.13%); format: functional
[2] = Toxicity in BALB/c nude mouse xenografted with human PC-3 cells assessed as heart damage at 10 to 20 mg/kg, iv administered every 2 days and measured after 3 weeks; format: organism-based; settings: in vivo, 504 h, dose 10-20 mg/kg
PC-3 [3] = assay: Induction of cell cycle arrest in human PC-3 cells assessed as S phase cells at 0.16 uM incubated for 24 hrs by PI staining based flow cytometry analysis (reference value: 31.7%); format: functional
PC-3 [4] = assay: Induction of cell cycle arrest in human PC-3 cells assessed as G1 phase cells at 0.32 uM incubated for 24 hrs by PI staining based flow cytometry analysis (reference value: 56.17%); format: functional
[5] = Toxicity in BALB/c nude mouse xenografted with human PC-3 cells assessed as spleen damage at 10 to 20 mg/kg, iv administered every 2 days and measured after 3 weeks; format: organism-based; settings: in vivo, 504 h, dose 10-20 mg/kg
Tubulin (Homo sapiens) = Tubulin (Homo sapiens) (UniProt P68371+Q9H4B7+P0DPH7+P68366+Q13509+Q71U36+P04350+Q3ZCM7+P07437+P68363+Q9BQE3+Q6PEY2+Q13885+Q9BVA1+Q9BUF5); assay: Inhibition of microtubule polymerization in human PC-3 cells assessed as disorganized microtubule filaments at 0.32 uM incubated for 6 hrs by immunofluorescent staining based confocal microscopy assay; format: cell-based
PC-3 [6] = assay: Inhibition of colony formation in human PC-3 cells at 40 nM incubated for 24 hrs followed by replacement with fresh media and measured after 2 weeks by crystal violet staining based assay; format: functional
Histone deacetylase 2 = Histone deacetylase 2 (Homo sapiens, UniProt Q92769); assay: Inhibition of HDAC2 in human PC-3 cells assessed as increase in acetylated Histone-H3 level incubated for 24 hrs by Western blotting assay; format: cell-based; settings: dose 0.08-0.32 µM
PC-3 [7] = assay: Induction of cell cycle arrest in human PC-3 cells assessed as decrease in phosphorylated […] Tyr15 by Western blotting analysis; format: functional, cell-based; settings: dose 0.08-0.32 µM
Histone deacetylase 1 [8] = target: T1, Histone deacetylase 1 (Homo sapiens, UniProt Q13547); assay: Inhibition of HDAC1 in human HeLa nuclear extracts incubated for 30 mins by fluorescence based assay; format: cell-free
PC-3 [9] = assay: Induction of ROS generation in human PC-3 cells at 0.16 uM incubated for 24 hrs by DCFH-DA staining based flow cytometry analysis (reference value: 2.63%); format: functional
Histone deacetylase 1 [10] = target: T1, Histone deacetylase 1; assay: Inhibition of HDAC1 in human PC-3 cells assessed as increase in acetylated Histone-H3 level incubated for 24 hrs by Western blotting assay; format: cell-based; settings: dose 0.08-0.32 µM
PC-3 [11] = assay: Induction of apoptosis in human PC-3 cells assessed as necrotic cells at 0.32 uM incubated for 24 hrs by Annexin V-FITC and PI staining based flow cytometry (reference value: 0.13%); format: functional
MDA-MB-231 = assay: Cytotoxicity against human MDA-MB-231 cells incubated for 72 hrs by MTT assay; format: functional, cell-based; settings: MDA-MB-231, 72 h
PC-3 [12] = assay: Induction of apoptosis in human PC-3 cells assessed as viable cells at 0.32 uM incubated for 24 hrs by Annexin V-FITC and PI staining based flow cytometry (reference value: 97.5%); format: functional; settings: read-out: Activity
PC-3 [13] = assay: Induction of cell cycle arrest in human PC-3 cells assessed as decrease in phosphorylated Cdc2 at […] by Western blotting analysis; format: functional, cell-based; settings: dose 0.08-0.32 µM
Histone deacetylase 7 = target: T2, Histone deacetylase 7 (Homo sapiens, UniProt Q8WUI4); assay: Inhibition of HDAC7 in human HeLa nuclear extracts incubated for 30 mins by fluorescence based assay; format: cell-free
T2 sequence (Q8WUI4 whole entry): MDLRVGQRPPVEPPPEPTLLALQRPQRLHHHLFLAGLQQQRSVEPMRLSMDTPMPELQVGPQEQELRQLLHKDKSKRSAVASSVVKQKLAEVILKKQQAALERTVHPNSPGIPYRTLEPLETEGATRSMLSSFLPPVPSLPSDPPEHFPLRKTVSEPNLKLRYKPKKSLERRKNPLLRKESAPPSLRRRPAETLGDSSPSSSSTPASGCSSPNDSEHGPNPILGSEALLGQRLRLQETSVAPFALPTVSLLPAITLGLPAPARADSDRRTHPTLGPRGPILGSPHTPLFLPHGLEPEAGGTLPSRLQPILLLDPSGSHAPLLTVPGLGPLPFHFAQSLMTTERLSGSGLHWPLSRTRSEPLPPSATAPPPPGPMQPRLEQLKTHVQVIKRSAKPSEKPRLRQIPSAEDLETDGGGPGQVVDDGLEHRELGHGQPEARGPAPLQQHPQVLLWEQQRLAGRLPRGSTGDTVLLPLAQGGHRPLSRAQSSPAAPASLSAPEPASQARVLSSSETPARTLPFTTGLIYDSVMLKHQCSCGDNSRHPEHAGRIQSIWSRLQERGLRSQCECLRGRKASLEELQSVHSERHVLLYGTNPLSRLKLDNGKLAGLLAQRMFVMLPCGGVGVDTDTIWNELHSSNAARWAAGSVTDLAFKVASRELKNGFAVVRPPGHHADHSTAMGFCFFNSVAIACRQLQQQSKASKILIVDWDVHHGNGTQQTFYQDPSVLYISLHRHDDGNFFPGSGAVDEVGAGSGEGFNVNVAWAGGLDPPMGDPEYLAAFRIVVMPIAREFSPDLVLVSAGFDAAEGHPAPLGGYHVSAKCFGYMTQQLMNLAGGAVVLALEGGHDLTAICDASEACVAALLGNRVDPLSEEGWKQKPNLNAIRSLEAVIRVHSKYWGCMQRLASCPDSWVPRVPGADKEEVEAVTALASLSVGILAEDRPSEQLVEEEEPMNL

[14] = Toxicity in BALB/c nude mouse xenografted with human PC-3 cells assessed as liver damage at 10 to 20 mg/kg, iv administered every 2 days and measured after 3 weeks; format: organism-based; settings: in vivo, 504 h, dose 10-20 mg/kg
[15] = Clearance in Sprague-Dawley rat at 2 mg/kg, iv measured upto 24 hrs by HPLC-MS analysis; format: ADME, organism-based; settings: in vivo
PC-3 [16] = assay: Induction of ROS generation in human PC-3 cells at 0.08 uM incubated for 24 hrs by DCFH-DA staining based flow cytometry analysis (reference value: 2.63%); format: functional
PC-3 [17] = assay: Induction of cell cycle arrest in human PC-3 cells assessed as G2/M phase cells at 0.08 uM incubated for 24 hrs by PI staining based flow cytometry analysis (reference value: 12.83%); format: functional
PC-3 [18] = assay: Antitumor activity against human PC-3 cells xenografted in iv dosed BALB/c nude mouse assessed as tumor growth inhibition administered every 2 days and measured after 3 weeks; format: functional, organism-based; settings: dose 10-20 mg/kg
PC-3 [19] = assay: Induction of apoptosis in human PC-3 cells assessed as upregulation of cleaved caspase-3 expression at 0.08 to 0.32 uM by Western blotting analysis; format: functional, cell-based; settings: dose 0.08-0.32 µM
PC-3 [20] = assay: Induction of apoptosis in human PC-3 cells assessed as late apoptotic cells at 0.32 uM incubated for 24 hrs by Annexin V-FITC and PI staining based flow cytometry (reference value: 1.02%); format: functional
PC-3 [21] = assay: Induction of ROS generation in human PC-3 cells at 0.32 uM incubated for 24 hrs by DCFH-DA staining based flow cytometry analysis (reference value: 2.63%); format: functional

T1 sequence (Q13547 whole entry): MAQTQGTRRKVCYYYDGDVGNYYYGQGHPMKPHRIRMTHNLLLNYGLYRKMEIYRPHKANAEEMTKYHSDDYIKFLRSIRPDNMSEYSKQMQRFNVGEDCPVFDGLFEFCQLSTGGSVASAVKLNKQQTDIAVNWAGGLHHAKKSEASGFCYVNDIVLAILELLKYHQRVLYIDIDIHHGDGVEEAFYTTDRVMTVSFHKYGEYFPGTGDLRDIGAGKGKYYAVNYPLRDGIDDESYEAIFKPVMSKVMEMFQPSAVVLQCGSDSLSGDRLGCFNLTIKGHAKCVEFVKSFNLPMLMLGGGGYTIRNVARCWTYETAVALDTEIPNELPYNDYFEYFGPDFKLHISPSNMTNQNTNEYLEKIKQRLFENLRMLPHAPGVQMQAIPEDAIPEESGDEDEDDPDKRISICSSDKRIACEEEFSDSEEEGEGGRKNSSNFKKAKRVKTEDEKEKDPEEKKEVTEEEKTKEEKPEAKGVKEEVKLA
Chain of Histone deacetylase 2 (Q92769 whole entry): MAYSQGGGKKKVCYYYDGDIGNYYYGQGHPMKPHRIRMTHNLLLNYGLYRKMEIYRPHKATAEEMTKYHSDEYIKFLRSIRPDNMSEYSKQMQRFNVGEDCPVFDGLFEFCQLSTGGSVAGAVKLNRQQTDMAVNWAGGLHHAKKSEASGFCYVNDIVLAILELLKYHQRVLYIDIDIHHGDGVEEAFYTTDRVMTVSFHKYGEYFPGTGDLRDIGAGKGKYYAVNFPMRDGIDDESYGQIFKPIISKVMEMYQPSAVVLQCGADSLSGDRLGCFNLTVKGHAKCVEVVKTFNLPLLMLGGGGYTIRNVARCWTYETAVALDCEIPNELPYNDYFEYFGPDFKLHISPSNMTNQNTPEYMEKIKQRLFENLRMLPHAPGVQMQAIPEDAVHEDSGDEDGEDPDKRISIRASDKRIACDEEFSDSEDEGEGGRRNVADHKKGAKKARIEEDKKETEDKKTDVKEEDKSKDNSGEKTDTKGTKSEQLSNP

In the case of `COc1ccc(/C=C/C(=O)c2ccc(OC)c3c2OC(C)(C)C=C3)cc1NCC(=O)NO`, the Activity (PC-3 [1]) is reported as 0.041%, the Activity [2] is reported as “Non-Toxic” and the Activity (PC-3 [3]) is reported as 28.7%. The Activity (PC-3 [4]) was 6%, the Activity [5] was “Non-Toxic” and the inhibition (Tubulin (Homo sapiens)) was “Active”. For the same molecule, the inhibition at 0.04 µM (PC-3 [6]) was 100%, the inhibition (Histone deacetylase 2) was “Dose-Dependent Effect” and the Activity (PC-3 [7]) was “Active”. For the same molecule, the IC50 (Histone deacetylase 1 [8]) was 730 nM, the Activity (PC-3 [9]) was 75.4% and the inhibition (Histone deacetylase 1 [10]) was “Dose-Dependent Effect”. It also gave an Activity (PC-3 [11]) of 0.19%, an IC50 (MDA-MB-231) of 340 nM and a viability at 0.32 µM (PC-3 [12]) of 27.6%. The Activity (PC-3 [13]) was “Active”, the IC50 (Histone deacetylase 7) was 2340 nM and the Activity [14] was “Non-Toxic”. The clearance [15] was 5 mL/min/kg, the Activity (PC-3 [16]) was 45.7% and the Activity (PC-3 [17]) was 25.45%. The Activity (PC-3 [18]) was “Dose-Dependent Effect”, the Activity (PC-3 [19]) was “Active” and the Activity (PC-3 [20]) was 8.39%. For the same molecule, the Activity (PC-3 [21]) was 83.1%.
